Reference: US20140255330A1, “Mixed Sugar Compositions” (THE PROCTER & GAMBLE COMPANY, priority 2013, published 2014)

Columns and labels:
[1] = Visual melting point determination (capillary melting point apparatus); assay type: physicochemical; conditions: for Ending MP: transparent gel to liquid
Text: A Kimax −51 capillary tube (size 1.5−1.8×90 mm) was charged with the mixed C12-NMG:C12-NMX samples described in Example 22 to afford ˜½ inch sample bed. A Tomas Hoover Capillary Melting Point Apparatus was used to determine melting points visually. The Starting Melting Point (MP) is defined as the temperature (° C.) when the initial white opaque solid has completed the transition to a transparent gel. The Ending Melting Point (MP) is defined as the temperature (° C.) when the transparent gel transitions to liquid.
The procedure of Example 27 was followed using the mixed C12-NMG:C12-NMGly samples described in Example 23.

[2] = Thermal transition determination via DSC, -20° C. to 160° C. at 20° C./min; assay type: physicochemical; conditions: C12-NMG:C12-NMX; for T Intercept / T Peak Max: peak 1; for T Intercept-3 / T Peak Max-3: peak 3
Procedure: (§1) A Tzero Hermetic pan & lid was charged with ˜10-15 mg mixed material sample described in Examples 22. A Direct Scanning Coulometer, DSC Q2000 V24.9 was used to determine thermal transitions. A DSC is able to detect phase transitions within a material that might not be visible to the naked eye. The following temperature profile was used to obtain the data: ambient temperature cooled to −20° C. at 20° C./min, −20° C. to 160° C. at 20° C./min. The T intercept is defined as the temperature where the extrapolated slope of the initial curve of a peak intercepts the interpolated baseline of that peak. T Peak Max is defined as the temperature at the peak (inflection point) of a given curve.
Temperature program: Ambient temperature to −20° C. at 20° C./min, −20° C. to 160° C. at 20° C./min.

[3] = literature values; cited from earlier work
[4] = Thermal transition determination via DSC, -40° C. program (procedure of Example 30); assay type: physicochemical; conditions: for T Intercept-2 / T Peak Max-2: peak 2
Procedure: as §1, with “transitions.” for “transitions. A DSC is able to detect phase transitions within a material that might not be visible to the naked eye.”, “−40°” for “−20°”
Temperature program: Ambient temperature to −40° C. at 20° C./min, −40° C. to 140° C. at 20° C./min.
(§2) The procedure of Example 30 was followed using the mixed C12-ene-NMG:C12-ene-NMX samples described in Example 24.
The procedure of Example 30 was followed using the mixed C15-ene-NMG:C15-ene-NMX samples described in Example 25. […]
The procedure of Example 30 was followed using the mixed NMHG:NMHX samples described in Example 46.

[5] = Physical consistency of samples noted at ambient temperature; assay type: physicochemical; conditions: when placed into DSC pan
Text: as §2
The procedure of Example 30 was followed using the mixed C15-ene-NMG:C15-ene-NMX samples described in Example 25.
The procedure of Example 30 was followed using the mixed CCO-NMG:CCO-NMX samples described in Example 37.

[6] = Krafft Point analysis, Phase Technology NK60-KPA Analyzer (Diffusive Light Scattering); assay type: physicochemical; conditions: 1 wt % solutions of C12-NMG and C12-NMX in deionized water mixed by volume
Procedure: Krafft Point analysis was performed on a Phase Technology® NK60-KPA Analyzer that used a Diffusive Light Scattering (DLS) detection method. A 1 wt % solution was prepared in deionized water and 0.150 ml of this solution was added to the sample cell of the instrument at room temperature (20-25° C.). The following heating and cooling cycle was executed on the sample. Samples were warmed to 40° C. at a ramp rate of 5° C./min and held for 30 seconds. Next, Samples were cooled to −20° C. at a rate of −10° C./min and held for 60 seconds. Samples were then warmed to 0° C. at a rate of 5° C./min, held for 0 seconds, warmed to 30° C. at a rate of 2° C./min, held for 0 seconds and lastly warmed to 40° C. at a rate of 5° C./min.
Data was recorded as crystal count (y-axis) versus temperature (x-axis). […] During final warming cycle, when crystal count returned to original baseline, the temperature at that point was recorded as the Krafft point.
(§3) 1 wt % solutions of each of the materials in the table below were tested. […] A volume of 0.150 mL of this mixture was then analyzed via the Phase Technology® NK60-KPA Analyzer.
as §3

[7] = C12-NMG:C12-NMGly blends by weight
[8] = C12-NMG:C12-NMX blends by weight
[9] = C12-NMG:C12-NMX blends by weight, white opaque solid to transparent gel
[10] = C12-ene-NMG:C12-ene-NMX, peak 1, ** = No peak was observed
[11] = C15-ene-NMG:C15-ene-NMX, peak 1, ** = No peak was observed

## CCCCCCCCCCCC(=O)N(C)C[C@H](O)[C@@H](O)[C@H](O)[C@H](O)CO [Example C12-NMG, N-Dodecanoyl-N-Methylglucamine]
[1]; [7]
  Ending PM: 127.2 °C
  Starting MP: 96.8 °C
[1]; [8]
  Ending MP: 129.8 °C
[1]; [9]
  Starting MP: 96 °C
[2]
  T Intercept: 84.1 °C
  T Peak Max: 94.7 °C
  T Intercept-3: 136.7 °C
  T Peak Max-3: 137.9 °C
[3]
  initial melting point (Zhu et al): 90.5-91.5 °C
[4]; C12-NMG:C12-NMGly, peak 1
  T Intercept: 82.0 °C
  T Peak Max: 94.7 °C
[4]; C12-NMG:C12-NMGly
  T Intercept-2: 137.0 °C

## CCCCCCCCCCCC(=O)N(C)CC(O)CO (centres unmarked) [Example C12-NMGly, N-Dodecanoyl-(3-methylamino-1,2-propanediol)]
[1]; [7]
  Ending PM: 52.8 °C
  Starting MP: 46.3 °C
[3]
  initial melting point (Zhu et al): 40-40.5 °C
[4]; C12-NMG:C12-NMGly, peak 1
  T Intercept: 44.5 °C
  T Peak Max: 49.6 °C
[4]; C12-NMG:C12-NMGly
  T Intercept-2: 117.2 °C

## CCCCCCCCCCCC(=O)N(C)CC(O)C(O)C(O)CO (centres unmarked) [Example C12-NMX, N-Dodecanoyl-N-Methylxylamine]
[1]; [8]
  Ending MP: 96.6 °C
[1]; [9]
  Starting MP: 76 °C
[2]
  T Intercept: 69.7 °C
  T Peak Max: 77.0 °C
  T Intercept-3: 95.6 °C
  T Peak Max-3: 97.2 °C
[3]
  initial melting point (Zhu et al): 74-75 °C

## CCC=CCCCCCCCC(=O)N(C)C[C@H](O)[C@@H](O)[C@H](O)[C@H](O)CO [Example C12-ene-NMG, N-(9-Dodecenoyl)-N-Methylglucamine]
[5]
  physical consistency of sample: powders
[4]; [10]
  T Intercept: 67.0 °C
  T Peak Max: 78.7 °C
[4]; C12-ene-NMG:C12-ene-NMX
  T Intercept-2: 106.1 °C
  T Peak Max-2: 108.5 °C

## CCC=CCCCCCCCC(=O)N(C)CC(O)C(O)C(O)CO (centres unmarked) [Example C12-ene-NMX, N-(9-Dodecenoyl)-N-Methylxylamine]
[5]
  physical consistency of sample: waxy in nature
[4]; [10]
  T Intercept: 26.0 °C
  T Peak Max: 28.6 °C
[4]; C12-ene-NMG:C12-ene-NMX
  T Intercept-2: 86.2 °C
  T Peak Max-2: 89.5 °C

## CCCCCC=CCCCCCCCC(=O)N(C)C[C@H](O)[C@@H](O)[C@H](O)[C@H](O)CO [Example C15-ene-NMG, N-(9-Pentadecenoyl)-N-Methylglucamine]
[4]; [11]
  T Intercept: 64.1 °C
  T Peak Max: 77.9 °C
[4]; C15-ene-NMG:C15-ene-NMX
  T Intercept-2: 144.6 °C
  T Peak Max-2: 146.2 °C

## CCCCCC=CCCCCCCCC(=O)N(C)CC(O)C(O)C(O)CO (centres unmarked) [Example C15-ene-NMX, N-(9-Pentadecenoyl)-N-Methyl-Xylamine]
[5]
  physical consistency of sample: waxy in nature
[4]; [11]
  T Intercept: 27.5 °C
  T Peak Max: 38.8 °C
[4]; C15-ene-NMG:C15-ene-NMX
  T Intercept-2: 113.0 °C
  T Peak Max-2: 115.5 °C

## CCCCCCN(C)C[C@H](O)[C@@H](O)[C@H](O)CO [NMHX, N-Methyl Hexyl Xylamine]
[4]; NMHG:NMHX blends by weight
  T Intercept: 48.6 °C
  T Peak Max: 52.3 °C

## CCCCCCCCCCCC(=O)N(C)C[C@H](O)[C@@H](O)[C@H](O)[C@H](O)CO [Solution 13, N-Dodecanoyl-N-Methylglucamine]
[6]
  Krafft Point: 37 °C

## N-Methyl Hexyl Glucamine [NMHG]
[4]; NMHG:NMHX blends by weight
  T Intercept: 73.8 °C
  T Peak Max: 79.0 °C

## N-Methylglucamine [Example 1]
[6]
  Krafft Point: 20 °C
